From patent publication US11957687B2 (REGENERON PHARMACEUTICALS, INC., priority 2019, dated 2024) come the findings set out here.

Each structure is given as a SMILES string. A value given as a limit tells only on which side of the number the result lay.

In this assay the target is HSD17B13 (Homo sapiens (Human), UniProt Q7Z5P4). The experiment in a line: HSD17B13 enzymatic inhibition assay (150 nM or 50 nM HSD17B13). Type of assay: biochemical. The note with it: 50 nM HSD17B13; read-out: Inhibition of 50 nM of HSD17B13 IC50.
HSD17B13, sequence (Q7Z5P4 other isoform, or with tags, fused parts or gaps): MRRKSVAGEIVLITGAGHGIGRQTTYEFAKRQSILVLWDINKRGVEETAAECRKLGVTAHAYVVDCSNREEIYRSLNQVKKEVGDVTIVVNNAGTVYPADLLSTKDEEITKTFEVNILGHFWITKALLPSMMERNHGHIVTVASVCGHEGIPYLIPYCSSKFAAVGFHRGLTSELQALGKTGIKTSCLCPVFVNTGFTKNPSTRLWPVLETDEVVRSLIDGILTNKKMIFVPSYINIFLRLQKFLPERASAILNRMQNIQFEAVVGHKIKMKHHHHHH

As for `Cc1cccc(C(NC(=O)c2ccc(C(F)(F)F)[nH]c2=O)c2ccccc2S(C)(=O)=O)c1` (stereo not drawn) [Compound 452, N-((2-(methylsulfonyl)phenyl)(m-tolyl)methyl)-2-oxo-6-(trifluoromethyl)-1,2-dihydropyridine-3-carboxamide], the IC50 was determined as 7030 nM.
As to `Cc1cccc(C(NC(=O)c2ccc(C(F)(F)F)[nH]c2=O)c2ccccc2)c1S(C)(=O)=O` (stereo not drawn) [Compound 453, N-((3-methyl-2-(methylsulfonyl)phenyl) (phenyl)methyl)-2-oxo-6-(trifluoromethyl)-1,2-dihydropyridine-3-carboxamide], the IC50 came to 3230 nM.
The figure for `CCc1cccc(C(NC(=O)c2ccc(C(F)(F)F)[nH]c2=O)c2ccccc2OC)c1` (stereo not drawn) [Compound 454, N-((3-ethylphenyl)(2-methoxyphenyl)methyl)-2-oxo-6-(trifluoromethyl)-1,2-dihydropyridine-3-carboxamide] is 1810 nM.
Consider `CCc1cccc(C(NC(=O)c2ccc(C(F)(F)F)[nH]c2=O)c2ccccc2SC)c1` (stereo not drawn) [Compound 455, N-((3-ethylphenyl)(2-(methylthio)phenyl)methyl)-2-oxo-6-(trifluoromethyl)-1,2-dihydropyridine-3-carboxamide], for which the IC50 worked out at 870 nM.
Take `CCc1cccc(C(NC(=O)c2ccc(C(F)(F)F)[nH]c2=O)c2ccccc2S(C)(=O)=O)c1` (stereo not drawn) [Compound 456, N-((3-ethylphenyl)(2-(methylsulfonyl)phenyl)methyl)-2-oxo-6-(trifluoromethyl)-1,2-dihydropyridine-3-carboxamide]: the IC50 stood at 4830 nM.
On to `CCCc1ccc2c(c1)C(NC(=O)c1ccc(C(F)(F)F)[nH]c1=O)c1ccccc1O2` (stereo not drawn) [Compound 457, 2-oxo-N-(2-propyl-9H-xanthen-9-yl)-6-(trifluoromethyl)-1,2-dihydropyridine-3-carboxamide], for which the IC50 is 120 nM.
The figure for `CCCc1ccc2c(c1)C(NC(=O)c1ccc(C(F)(F)F)[nH]c1=O)c1ccccc1S2` (stereo not drawn) [Compound 458, 2-oxo-N-(2-propyl-9H-thioxanthen-9-yl)-6-(trifluoromethyl)-1,2-dihydropyridine-3-carboxamide] is 520 nM.
With `Cc1ccc2c(c1)Oc1cc(C)ccc1C2NC(=O)c1ccc(-c2ccccc2)[nH]c1=O` [Compound 459, N-(3,6-dimethyl-9H-xanthen-9-yl)-2-oxo-6-phenyl-1,2-dihydropyridine-3-carboxamide] the figure was more than 10000 nM.
The figure for `Cc1ccc2c(c1)S(=O)(=O)c1cc(C)ccc1C2NC(=O)c1cc(CO)c(C(F)(F)F)[nH]c1=O` [Compound 462, N-(3,6-dimethyl-10,10-dioxido-9H-thioxanthen-9-yl)-5-(hydroxymethyl)-2-oxo-6-(trifluoromethyl)-1,2-dihydropyridine-3-carboxamide] is 140 nM; for `Cc1ccc2c(c1)Sc1cc(C)ccc1C2NC(=O)c1cc(CO)c(C(F)(F)F)[nH]c1=O` [Compound 463, N-(3,6-dimethyl-9H-thioxanthen-9-yl)-5-(hydroxymethyl)-2-oxo-6-(trifluoromethyl)-1,2-dihydropyridine-3-carboxamide] it is 50 nM.
With `Cc1ccc2c(c1)Oc1cc(C)ccc1C2NC(=O)c1cc(CO)c(C(F)(F)F)[nH]c1=O` [Compound 464, N-(3,6-dimethyl-9H-xanthen-9-yl)-5-(hydroxymethyl)-2-oxo-6-(trifluoromethyl)-1,2-dihydropyridine-3-carboxamide], the IC50 is 10 nM.
Take `CCCc1cccc(C(NC(=O)c2ccc(C(F)(F)F)[nH]c2=O)c2ccccc2)c1` (stereo not drawn) [Compound 465, 2-oxo-N-(phenyl(3-propylphenyl)methyl)-6-(trifluoromethyl)-1,2-dihydropyridine-3-carboxamide]: the IC50 amounted to 610 nM.
Regarding `CCc1cccc(C(NC(=O)c2ccc(C(F)(F)F)[nH]c2=O)c2ccccc2)c1` (stereo not drawn) [Compound 466, N-((3-ethylphenyl)(phenyl)methyl)-2-oxo-6-(trifluoromethyl)-1,2-dihydropyridine-3-carboxamide], the IC50 stood at 600 nM.
With `C=Cc1cccc(C(NC(=O)c2ccc(C(F)(F)F)[nH]c2=O)c2ccccc2)c1` (stereo not drawn) [Compound 467, 2-oxo-N-(phenyl(3-vinylphenyl)methyl)-6-(trifluoromethyl)-1,2-dihydropyridine-3-carboxamide] the figure was 990 nM.
Turning to `CCc1ccc2c(c1)C(NC(=O)c1ccc(C(F)(F)F)[nH]c1=O)c1ccccc1S2(=O)=O` (stereo not drawn) [Compound 468, N-(2-ethyl-10,10-dioxido-9H-thioxanthen-9-yl)-2-oxo-6-(trifluoromethyl)-1,2-dihydropyridine-3-carboxamide], the IC50 is 190 nM.
The figure for `CCCc1ccc2c(c1)C(NC(=O)c1ccc(C(F)(F)F)[nH]c1=O)c1ccccc1S2(=O)=O` (stereo not drawn) [Compound 469, N-(10,10-dioxido-2-propyl-9H-thioxanthen-9-yl)-2-oxo-6-(trifluoromethyl)-1,2-dihydropyridine-3-carboxamide] is 310 nM; for `Cc1ccc2c(c1)C(NC(=O)c1ccc(C(F)(F)F)[nH]c1=O)c1ccccc1S2(=O)=O` (stereo not drawn) [Compound 470, N-(2-methyl-10,10-dioxido-9H-thioxanthen-9-yl)-2-oxo-6-(trifluoromethyl)-1,2-dihydropyridine-3-carboxamide] it is 420 nM.
In the case of `C=CCc1ccc2c(c1)C(NC(=O)c1ccc(C(F)(F)F)[nH]c1=O)c1ccccc1O2` (stereo not drawn) [Compound 471, N-(2-allyl-9H-xanthen-9-yl)-2-oxo-6-(trifluoromethyl)-1,2-dihydropyridine-3-carboxamide], the IC50 turned out to be 280 nM.
With `O=C(NC1c2ccccc2S(=O)(=O)c2ccc(CC(F)(F)F)cc21)c1ccc(C(F)(F)F)[nH]c1=O` (stereo not drawn) [Compound 472, N-(10,10-dioxido-2-(2,2,2-trifluoroethyl)-9H-thioxanthen-9-yl)-2-oxo-6-(trifluoromethyl)-1,2-dihydropyridine-3-carboxamide] the figure was 480 nM.
With `Cc1ccc2c(c1)S(=O)(=O)c1cc(C)ccc1C2NC(=O)c1cc(Br)c(C(F)(F)F)[nH]c1=O` [Compound 473, 5-bromo-N-(3,6-dimethyl-10,10-dioxido-9H-thioxanthen-9-yl)-2-oxo-6-(trifluoromethyl)-1,2-dihydropyridine-3-carboxamide], the IC50 turned out to be 30 nM.
Turning to `Cc1ccc2c(c1)S(=O)(=O)c1cc(C)ccc1C2NC(=O)c1cc(C)c(C(F)(F)F)[nH]c1=O` [Compound 474, N-(3,6-dimethyl-10,10-dioxido-9H-thioxanthen-9-yl)-5-methyl-2-oxo-6-(trifluoromethyl)-1,2-dihydropyridine-3-carboxamide], the IC50 was found to be 30 nM.
With `Cc1ccc2c(c1)S(=O)(=O)c1cc(C)ccc1C2NC(=O)c1ccc(C(F)(F)F)[nH]c1=O` [Compound 475, N-(3,6-dimethyl-10,10-dioxido-9H-thioxanthen-9-yl)-2-oxo-6-(trifluoromethyl)-1,2-dihydropyridine-3-carboxamide] the figure was 10 nM.
The figure for `Cc1ccc2c(c1)S(=O)(=O)c1cccc(C)c1C2NC(=O)c1ccc(C(F)(F)F)[nH]c1=O` (stereo not drawn) [Compound 476, N-(1,6-dimethyl-10,10-dioxido-9H-thioxanthen-9-yl)-2-oxo-6-(trifluoromethyl)-1,2-dihydropyridine-3-carboxamide] is more than 10000 nM; for `O=C(NC1CCOc2cccnc21)c1ccc(C(F)(F)F)[nH]c1=O` (stereo not drawn) [Compound 477, N-(3,4-dihydro-2H-pyrano[3,2-b]pyridin-4-yl)-2-oxo-6-(trifluoromethyl)-1,2-dihydropyridine-3-carboxamide] it is more than 10000 nM.
With `O=C(NC(c1ccccc1)c1cccc(CC(F)(F)F)c1)c1ccc(C(F)(F)F)[nH]c1=O` (stereo not drawn) [Compound 478, 2-oxo-N-(phenyl(3-(2,2,2-trifluoroethyl)phenyl)methyl)-6-(trifluoromethyl)-1,2-dihydropyridine-3-carboxamide] the figure was 1410 nM; with `O=C(NC1c2ccccc2Oc2ccc(CC(F)(F)F)cc21)c1ccc(C(F)(F)F)[nH]c1=O` (stereo not drawn) [Compound 479, 2-oxo-N-(2-(2,2,2-trifluoroethyl)-9H-xanthen-9-yl)-6-(trifluoromethyl)-1,2-dihydropyridine-3-carboxamide], 260 nM.
`O=C(NC1c2ccccc2Sc2ccc(CC(F)(F)F)cc21)c1ccc(C(F)(F)F)[nH]c1=O` (stereo not drawn) [Compound 480, 2-oxo-N-(2-(2,2,2-trifluoroethyl)-9H-thioxanthen-9-yl)-6-(trifluoromethyl)-1,2-dihydropyridine-3-carboxamide]: the IC50 came out at 400 nM.
For `O=C(NC1c2ccccc2Oc2ccc(C3CNC3)cc21)c1ccc(C(F)(F)F)[nH]c1=O` (stereo not drawn) [Compound 481, N-(2-(azetidin-3-yl)-9H-xanthen-9-yl)-2-oxo-6-(trifluoromethyl)-1,2-dihydropyridine-3-carboxamide], the half-inhibitory concentration (IC50) turned out to be 1420 nM.
Take `CN1CC(c2ccc3c(c2)C(NC(=O)c2ccc(C(F)(F)F)[nH]c2=O)c2ccccc2O3)C1` (stereo not drawn) [Compound 482, N-(2-(1-methylazetidin-3-yl)-9H-xanthen-9-yl)-2-oxo-6-(trifluoromethyl)-1,2-dihydropyridine-3-carboxamide]: the IC50 was 2390 nM.
The figure for `O=C(NC1c2ccccc2Oc2cc(C3CNC3)ccc21)c1ccc(C(F)(F)F)[nH]c1=O` (stereo not drawn) [Compound 483, N-(3-(azetidin-3-yl)-9H-xanthen-9-yl)-2-oxo-6-(trifluoromethyl)-1,2-dihydropyridine-3-carboxamide] is 1110 nM; for `CN1CC(c2ccc3c(c2)Oc2ccccc2C3NC(=O)c2ccc(C(F)(F)F)[nH]c2=O)C1` (stereo not drawn) [Compound 484, N-(3-(1-methylazetidin-3-yl)-9H-xanthen-9-yl)-2-oxo-6-(trifluoromethyl)-1,2-dihydropyridine-3-carboxamide] it is 4980 nM; for `Cc1ccc2c(c1)Oc1cc(C)ccc1C2NC(=O)c1ccc(C(C)C)[nH]c1=O` [Compound 485, N-(3,6-dimethyl-9H-xanthen-9-yl)-6-isopropyl-2-oxo-1,2-dihydropyridine-3-carboxamide] it is more than 10000 nM.
As to `Cc1ccc2c(c1)Oc1cc(C)ccc1C2NC(=O)c1ccc(C(C)(C)C)[nH]c1=O` [Compound 486, 6-(tert-butyl)-N-(3,6-dimethyl-9H-xanthen-9-yl)-2-oxo-1,2-dihydropyridine-3-carboxamide], the IC50 is more than 10000 nM.
